Data from BindingDB's records for doi:10.1021/bi1005283 (Merck Research Laboratories, 2010).
pKd: −log10 of the molar value.

Molecular target: T1, Kinesin-like protein KIF11 (Homo sapiens, UniProt P52732)
T1 sequence (P52732 whole entry): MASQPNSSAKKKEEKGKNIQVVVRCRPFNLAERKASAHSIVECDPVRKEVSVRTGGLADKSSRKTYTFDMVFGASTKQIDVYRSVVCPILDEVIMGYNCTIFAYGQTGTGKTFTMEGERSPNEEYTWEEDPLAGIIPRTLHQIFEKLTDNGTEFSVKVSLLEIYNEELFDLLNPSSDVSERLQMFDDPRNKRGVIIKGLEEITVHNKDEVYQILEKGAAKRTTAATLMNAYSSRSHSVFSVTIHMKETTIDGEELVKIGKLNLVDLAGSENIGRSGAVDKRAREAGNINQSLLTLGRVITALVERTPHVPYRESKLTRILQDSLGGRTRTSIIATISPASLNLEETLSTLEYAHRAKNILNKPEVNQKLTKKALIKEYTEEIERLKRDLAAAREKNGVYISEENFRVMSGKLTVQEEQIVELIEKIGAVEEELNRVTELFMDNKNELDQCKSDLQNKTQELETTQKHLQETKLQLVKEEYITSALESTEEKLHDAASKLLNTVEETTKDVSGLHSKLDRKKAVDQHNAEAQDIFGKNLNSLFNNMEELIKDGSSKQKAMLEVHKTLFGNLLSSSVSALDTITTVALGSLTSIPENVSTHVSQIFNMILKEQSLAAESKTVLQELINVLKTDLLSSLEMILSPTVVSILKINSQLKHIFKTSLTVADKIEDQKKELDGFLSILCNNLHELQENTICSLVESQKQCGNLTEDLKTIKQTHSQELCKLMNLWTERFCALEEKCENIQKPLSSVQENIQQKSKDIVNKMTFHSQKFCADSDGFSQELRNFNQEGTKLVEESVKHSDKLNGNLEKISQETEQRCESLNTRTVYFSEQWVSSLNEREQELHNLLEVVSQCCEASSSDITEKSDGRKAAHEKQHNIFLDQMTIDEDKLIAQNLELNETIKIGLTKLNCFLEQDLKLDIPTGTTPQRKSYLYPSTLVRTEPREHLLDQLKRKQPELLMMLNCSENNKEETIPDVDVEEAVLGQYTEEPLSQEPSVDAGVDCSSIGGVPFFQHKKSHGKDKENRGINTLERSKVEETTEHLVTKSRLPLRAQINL
Experiment: Binding Assay
Text: Binding assay using temperature-dependent circular dichroism (TdCD). In TdCD, the loss of protein secondary structure was monitored as a function of temperature. Proteins bound with ligand become more resistant to thermal unfolding compared to the unliganded protein because of the additional stabilization interactions created between the ligand and protein.

Compound	pKd
O=C(O)c1ccc2c(c1)nc(Nc1ccc(OCc3ccccc3)cc1)n2Cc1ccccc1C(F)(F)F [KSP Inhibitor, 4c]	4.85
COc1ccc(Nc2nc3cc(C(=O)O)ccc3n2Cc2ccccc2OC)cc1 [KSP Inhibitor, 4d]	5.30
COc1ccc(Nc2nc3cc(C(=O)O)ccc3n2Cc2ccccc2OC(F)(F)F)cc1 [KSP Inhibitor, 4g]	5.47

Compounds with a higher pKd, results first:

pKd	Compound
5.92	COc1ccc(Nc2nc3cc(C(=O)O)ccc3n2Cc2ccccc2C(F)(F)F)cc1
5.70	CSc1ccc(Nc2nc3cc(C(N)=O)ccc3n2Cc2ccccc2C(F)(F)F)cc1 [KSP Inhibitor, 4a]
5.60	CS(=O)(=O)c1ccc(Nc2nc3cc(C(N)=O)ccc3n2Cc2ccccc2C(F)(F)F)cc1 [KSP Inhibitor, 4b]
6.22	NC(=O)c1ccc2c(c1)nc(Nc1ccc(S(N)(=O)=O)cc1)n2Cc1ccccc1C(F)(F)F [KSP Inhibitor, 4e]
